According to patent US20070196478A1, “ANTIVIRAL COMPOSITIONS” (priority 1999, published 2007):

Test: thermal stability of the antiviral compound after melt extrusion (HPLC)
Assay type: physicochemical
Settings: melt extrudate with HPMC 2910 5 mPa·s, 70° C. to […] C.
Description: The melt extrudate was milled and fractions with particle size below 150 μm (condition I in point 6) and between 500 and 850 μm (condition II in point 6) were collected.

Cc1cc(C)c(Nc2ccnc(Nc3ccc(C#N)cc3)n2)c(C)c1 [Compound 17 of formula (I-A), 4-[[4-[(2,4,6-trimethylphenyl)amino]-2-pyrimidinyl]amino]benzonitrile]
degradation of the antiviral compound after melt extrusion: No degradation
